Laboratory results taken from patent US10815222B2, “Compounds for use in the treatment of kinetoplastid infection” (C.N.C.C.S. S.c.a.r.l. COLLEZIONE NAZIONALE DEI COMPOSTI …, priority 2016, dated 2020).

Tested on: Bloodstream form of Trypanosoma brucei, strain Lister 427
Assay: Trypanosoma brucei growth inhibition assay (CellTiter-Glo, 24 h)
Type: cell-based
Settings: T. Brucei Growth Inibition Assay, class symbols; read-out: T. Brucei GI EC50
In short: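 Growth read-out was CellTiter-Glo luminescence after 24 h at 37 °C incubation of 1500 bloodstream-form Lister 427 trypanosomes per well with compound, in supplemented IMDM containing 10% FBS and at most 0.25% DMSO.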

SMILES	EC50
COc1ccc2nc(C(F)(F)F)n(CC(=O)N3CC[C@@H](N(C)CC4CCOC4)C[C@H]3c3ncc(-c4cc5ccccc5nc4OC)[nH]3)c2c1 (some centres unmarked)	< 0.1 µM

Same assay, conditions: Trypanosoma brucei; T. Brucei Growth Inibition Assay, class symbols; read-out: T. Brucei GI EC50

SMILES	EC50
COc1ccc2nc(C(F)(F)F)n(CC(=O)N3CCN(CC4CCOC4)CCC3c3ncc(-c4cc5ccccc5nc4OC)[nH]3)c2c1 (centres unmarked) [2-(6-methoxy-2-(trifluoromethyl)-1H-benzo[d]imidazol-1-yl)-1-(7-(5-(2-methoxyquinolin-3-yl)-1H-imidazol-2-yl)-4-((tetrahydrofuran-3-yl)methyl)-1,4-diazepan-1-yl)ethan-1-one]	< 0.1 µM
O=C(Cc1c[nH]c2ccc(O)cc12)N1CCN(CC2CCOC2)CC1c1ncc(-c2ccc3ccccc3c2)[nH]1 (centres unmarked)	0.51 to 1 µM
COc1ccc2nc(C(F)(F)F)n(CC(=O)N3CCN(Cc4ccn(C)n4)CC[C@@H]3c3ncc(-c4cc5ccccc5nc4OC)[nH]3)c2c1 [(R)-2-(6-methoxy-2-(trifluoromethyl)-1H-benzo[d]imidazol-1-yl)-1-(7-(5-(2-methoxyquinolin-3-yl)-1H-imidazol-2-yl)-4-((1-methyl-1H-pyrazol-3-yl)methyl)-1,4-diazepan-1-yl)ethan-1-one]	1.01 to 5 µM
CN1CCN(C(=O)Cc2ccccc2)C(c2ncc(-c3ccc4ncccc4c3)[nH]2)C1 (centres unmarked)	1.01 to 5 µM
COc1ccc2nc(C(F)(F)F)n(CC(=O)N3CCN(Cc4ccn(C)n4)CC[C@H]3c3ncc(-c4cc5ccccc5nc4OC)[nH]3)c2c1 [(S)-2-(6-methoxy-2-(trifluoromethyl)-1H-benzo[d]imidazol-1-yl)-1-(7-(5-(2-methoxyquinolin-3-yl)-1H-imidazol-2-yl)-4-((1-methyl-1H-pyrazol-3-yl)methyl)-1,4-diazepan-1-yl)ethan-1-one]	< 0.1 µM
CCCCCCN1CCN(C(=O)Cc2c(C)[nH]c3ccccc23)C(c2ncc(-c3ccc4ccccc4c3)[nH]2)C1 (centres unmarked)	0.51 to 1 µM
COc1nc2ccccc2cc1-c1cnc(C2CN(Cc3cocn3)CCN2C(=O)Cc2c(C)[nH]c3ccc(F)cc23)[nH]1 (centres unmarked)	0.1 to 0.5 µM
COc1ccc2nc(C)n(CC(=O)N3CCN(Cc4ccn(C)n4)C[C@H]3c3ncc(-c4cc5ccccc5nc4OC)[nH]3)c2c1 [(S)-2-(6-methoxy-2-methyl-1H-benzo[d]imidazol-1-yl)-1-(2-(5-(2-methoxyquinolin-3-yl)-1H-imidazol-2-yl)-4-((1-methyl-1H-pyrazol-3-yl)methyl)piperazin-1-yl)ethan-1-one]	< 0.1 µM
COc1ccc2c(c1)C(CC(=O)N1CCN(Cc3ccccc3)CC1c1ncc(-c3ccc4ccccc4c3)[nH]1)C(=O)N2 (centres unmarked)	0.51 to 1 µM
Cc1[nH]c2ccccc2c1CC(=O)N1CCN(Cc2ccccc2)CC1c1ncc(-c2ccc3ccccc3c2)[nH]1 (centres unmarked)	1.01 to 5 µM
COc1nc2ccccc2cc1-c1cnc([C@@H]2CN(Cc3ccccc3)CCN2C(=O)Cn2c(C(F)(F)F)nc3ccccc32)[nH]1 [(S)-1-(4-benzyl-2-(5-(2-methoxyquinolin-3-yl)-1H-imidazol-2-yl)piperazin-1-yl)-2-(2-(trifluoromethyl)-1H-benzo[d]imidazol-1-yl)ethan-1-one]	< 0.1 µM
COc1ccc2nc(C)n(CC(=O)N3CCCCC3c3ncc(-c4cc5ccccc5nc4OC)[nH]3)c2c1 (centres unmarked)	0.1 to 0.5 µM
COc1ccc2nc(C(F)(F)F)n(CC(=O)N3CC[C@H](N(C)C4CCOC4)C[C@H]3c3ncc(-c4cc5ccccc5nc4OC)[nH]3)c2c1 (stereo partly drawn) [2-(6-methoxy-2-(trifluoromethyl)-1H-benzo[d]imidazol-1-yl)-1-((2S,4S)-2-(5-(2-methoxyquinolin-3-yl)-1H-imidazol-2-yl)-4-(methyl(tetrahydrofuran-3-yl)amino)piperidin-1-yl)ethan-1-one]	< 0.1 µM
COc1ccc2nc(C)n(CC(=O)N3CC[C@H](OC)C[C@H]3c3ncc(-c4cc5ccccc5nc4OC)[nH]3)c2c1 [1-((2S,4S)-4-methoxy-2-(5-(2-methoxyquinolin-3-yl)-1H-imidazol-2-yl)piperidin-1-yl)-2-(6-methoxy-2-methyl-1H-benzo[d]imidazol-1-yl)ethan-1-one]	< 0.1 µM
COc1nc2ccccc2cc1-c1cnc(C2COCCN2C(=O)Cn2c(C)nc3ccccc32)[nH]1 (centres unmarked)	1.01 to 5 µM
COc1nc2ccccc2cc1-c1cnc(C2CNCCN2C(=O)Cn2c(C)nc3ccccc32)[nH]1 (centres unmarked)	1.01 to 5 µM
COc1ccc2c(c1)C(CC(=O)N1CCN(C)CC1c1ncc(-c3ccc4ccccc4c3)[nH]1)C(=O)N2 (centres unmarked)	1.01 to 5 µM
COc1ccc2nc(C(F)(F)F)n(CC(=O)N3CC[C@H](NCc4cncn4C)C[C@H]3c3ncc(-c4cc5ccccc5nc4OC)[nH]3)c2c1 [2-(6-methoxy-2-(trifluoromethyl)-1H-benzo[d]imidazol-1-yl)-1-((2S,4S)-2-(5-(2-methoxyquinolin-3-yl)-1H-imidazol-2-yl)-4-(((1-methyl-1H-imidazol-5-yl)methyl)amino)piperidin-1-yl)ethan-1-one]	< 0.1 µM
COc1ccc2nc(C(F)(F)F)n(CC(=O)N3CCN(Cc4cnn(C)c4)CCC3c3ncc(-c4cc5ccccc5nc4OC)[nH]3)c2c1 (centres unmarked)	0.1 to 0.5 µM
COc1ccc2nc(C(F)(F)F)n(CC(=O)N3CCN(C4CCCC4)CCC3c3ncc(-c4cc5ccccc5nc4OC)[nH]3)c2c1 (centres unmarked)	0.1 to 0.5 µM
CO[C@](C(=O)N1CCN(C)C[C@@H]1c1ncc(-c2ccc3ccccc3c2)[nH]1)(c1ccccc1)C(F)(F)F	1.01 to 5 µM
COc1ccc2nc(C)n(CC(=O)N3CCN(CC4CCOC4)C[C@H]3c3ncc(-c4ccc5ncsc5c4)[nH]3)c2c1 (stereo partly drawn) [1-((2S)-2-(5-(benzo[d]thiazol-6-yl)-1H-imidazol-2-yl)-4-((tetrahydrofuran-3-yl)methyl)piperazin-1-yl)-2-(6-methoxy-2-methyl-1H-benzo[d]imidazol-1-yl)ethan-1-one]	1.01 to 5 µM

SMILES	EC50
COc1nc2ccccc2cc1-c1cnc([C@@H]2CN(Cc3ccccn3)CCN2C(=O)Cn2c(C(F)(F)F)nc3ccccc32)[nH]1 [(S)-1-(2-(5-(2-methoxyquinolin-3-yl)-1H-imidazol-2-yl)-4-(pyridin-2-ylmethyl)piperazin-1-yl)-2-(2-(trifluoromethyl)-1H-benzo[d]imidazol-1-yl)ethan-1-one]	< 0.1 µM
CCC(=O)CCCN1CCN(Cc2ccccc2)C(c2ncc(-c3ccc4ccccc4c3)[nH]2)C1 (centres unmarked) [6-(4-benzyl-3-(5-(naphthalen-2-yl)-1H-imidazol-2-yl)piperazin-1-yl)hexan-3-one]	1.01 to 5 µM
CCN(C1CCOC1)[C@H]1CCN(C(=O)Cn2c(C(F)(F)F)nc3ccc(OC)cc32)[C@H](c2ncc(-c3cc4ccccc4nc3OC)[nH]2)C1 (stereo partly drawn) [1-((2S,4S)-4-(ethyl(tetrahydrofuran-3-yl)amino)-2-(5-(2-methoxyquinolin-3-yl)-1H-imidazol-2-yl)piperidin-1-yl)-2-(6-methoxy-2-(trifluoromethyl)-1H-benzo[d]imidazol-1-yl)ethan-1-one]	< 0.1 µM
COc1nc2ccccc2cc1-c1cnc(C2COCCN2C(=O)Cn2nnc3ccccc32)[nH]1 (centres unmarked)	1.01 to 5 µM
Cc1csc(CC(=O)N2CCN(CC3CC3)CC2c2ncc(-c3ccc4ccccc4c3)[nH]2)n1 (centres unmarked)	1.01 to 5 µM
COc1ccc2nc(C(F)(F)F)n(CC(=O)N3CCCCC3c3ncc(-c4cc5ccccc5nc4OC)[nH]3)c2c1 (centres unmarked) [2-(6-methoxy-2-(trifluoromethyl)-1H-benzo[d]imidazol-1-yl)-1-(2-(5-(2-methoxyquinolin-3-yl)-1H-imidazol-2-yl)piperidin-1-yl)ethan-1-one]	< 0.1 µM
COc1ccc2nc(C)n(CC(=O)N3CCN(CC4CCOC4)C[C@H]3c3ncc(-c4cc5ccccc5nc4OC)[nH]3)c2c1 (stereo partly drawn) [2-(6-methoxy-2-methyl-1H-benzo[d]imidazol-1-yl)-1-((2S)-2-(5-(2-methoxyquinolin-3-yl)-1H-imidazol-2-yl)-4-((tetrahydrofuran-3-yl)methyl)piperazin-1-yl)ethan-1-one]	< 0.1 µM
Cc1[nH]c2ccccc2c1CC(=O)N1CCN(CC2CC2)CC1c1ncc(-c2ccc3ccccc3c2)[nH]1 (centres unmarked)	0.1 to 0.5 µM
Cc1csc(CC(=O)N2CCN(CCc3ccccc3)CC2c2ncc(-c3ccc4ccccc4c3)[nH]2)n1 (centres unmarked)	1.01 to 5 µM
COc1nc2ccccc2cc1-c1cnc(C2CN(C(=O)OCc3ccccc3)CCN2C(=O)Cc2c(C)[nH]c3ccc(F)cc23)[nH]1 (centres unmarked)	1.01 to 5 µM
COc1ccc2nc(C(F)(F)F)n(CC(=O)N3CCN(CCc4ccccn4)C[C@H]3c3ncc(-c4cc5ccccc5nc4OC)[nH]3)c2c1 [(S)-2-(6-methoxy-2-(trifluoromethyl)-1H-benzo[d]imidazol-1-yl)-1-(2-(5-(2-methoxyquinolin-3-yl)-1H-imidazol-2-yl)-4-(2-(pyridin-2-yl)ethyl)piperazin-1-yl)ethan-1-one]	< 0.1 µM
COc1ccc2nc(C(F)(F)F)n(CC(=O)N3CC[C@H](NC4CC(OC)C4)C[C@H]3c3ncc(-c4cc5ccccc5nc4OC)[nH]3)c2c1 (stereo partly drawn) [2-(6-methoxy-2-(trifluoromethyl)-1H-benzo[d]imidazol-1-yl)-1-((2S,4S)-4-((3-methoxycyclobutyl)amino)-2-(5-(2-methoxyquinolin-3-yl)-1H-imidazol-2-yl)piperidin-1-yl)ethan-1-one]	< 0.1 µM
CN1CCN(C(=O)Cc2c[nH]c3ncccc23)C(c2ncc(-c3ccc4ccccc4c3)[nH]2)C1 (centres unmarked)	1.01 to 5 µM
COc1nc2ccccc2cc1-c1cnc(C2CN(C(C)=O)CCN2C(=O)Cc2ccccc2)[nH]1 (centres unmarked)	1.01 to 5 µM
COc1nc2ccccc2cc1-c1cnc([C@@H]2CN(CC3CCOC3)CCN2C(=O)Cn2c(C)nc3ccc(S(C)(=O)=O)cc32)[nH]1 (some centres unmarked)	0.1 to 0.5 µM
CCC(=O)CCCN1CCN(C(=O)Cn2ccnn2)C(c2ncc(-c3ccc4ccccc4c3)[nH]2)C1 (centres unmarked)	1.01 to 5 µM
COc1nc2ccccc2cc1-c1cnc(C2CN(CC3CCOC3)CCN2C(=O)Cc2sc3ccccc3c2C)[nH]1 (centres unmarked)	0.1 to 0.5 µM
COc1nc2ccccc2cc1-c1cnc(C2CN(CC3CCOC3)CCN2C(=O)c2cc(C)n(Cc3ccccc3)n2)[nH]1 (centres unmarked)	1.01 to 5 µM
O=C(Cc1n[nH]c2ccccc12)N1CCN(Cc2ccccc2)CC1c1ncc(-c2ccc3ccccc3c2)[nH]1 (centres unmarked)	1.01 to 5 µM
O=C(Cc1c[nH]c2ncccc12)N1CCCCC1c1ncc(-c2ccc3ccccc3c2)[nH]1 (centres unmarked)	1.01 to 5 µM
COc1nc2ccccc2cc1-c1cnc(C2CN(CC3CCOC3)CCN2C(=O)CS(=O)(=O)c2ccccc2)[nH]1 (centres unmarked)	1.01 to 5 µM
